Assay results published in patent US20220273664A1, “Mitochondrial Targeted Releasable Linker” (THE GOVERNING COUNCIL OF THE UNIVERSITY OF TORONTO, priority 2017, published 2022).

Experiments:
K562 cells [1] = experiment: toxicity at different time points in K562 cells; format: cell-based; settings: K562 leukemia cells, up to 48 hours
Source text: FIG. 7A is a graphical representation of the toxicity of compound 5 at different time points in K562 cells.
FIG. 7B is a graphical representation of the toxicity of compound 6 at different time points in K562 cells.
FIG. 10 is a graphical representation of the toxicity of luminespib (compound 7, as shown in FIG. 6C) at different time points in K562 cells.

K562 cells [2] = experiment: apoptosis measured via Annexin V staining; format: cell-based; settings: 2.5 μM, 24 hours
Protocol: FIG. 8A is a chart illustrating apoptosis as measured via Annexin V staining of K562 cells treated for 24 hours with 2.5 μM of the compounds indicated. Cell populations were gated with annexin V+/Sytox red− cells as early apoptotic, and annexin V+/Sytox red+ cells as late apoptotic.
As controls, the parent compound luminespib (FIG. 8C, compound 7), and the empty disulfide vector (FIG. 6D) were also tested. The cells were treated with 2.5 μM of each compound.

CCNC(=O)c1noc(-c2cc(C(C)C)c(O)cc2O)c1-c1ccc(CN2CCOCC2)cc1 [luminespib, 5-(2,4-Dihydroxy-5-isopropylphenyl)-N-ethyl-4-(4-(morpholinomethyl)phenyl)isoxazole-3-carboxamide]
cell toxicity over time (K562 cells [1]): growth inhibition
apoptosis (early and late apoptotic cell populations) (K562 cells [2]): no increase
